From patent US20260216182A1, “PYRIDAZINE NLRP3 INHIBITOR COMPOUND, PHARMACEUTICAL COMPOSITION, AND PREPARATION METHOD THEREFOR AND USE THEREOF” (CHANGCHUN GENESCIENCE PHARMACEUTICAL CO., LTD., priority 2022, published 2026)
Like-named read-outs stand apart in the source and are kept apart here. Marks after values point to notes of the source that are not given here.

Tests used:
mouse NASH model = assay: Mouse NASH model test (HFD + fructose), combination with semaglutide; format: in vivo, mice
Description: Test Example 6 Mouse NASH Model Test
After the animals arrived and acclimatized for 1 week, they were randomly divided into 2 groups. 48 mice were fed a high-fat diet (HFD) and had free access to 15% fructose water (w/w). After the animals were fed for 20 weeks, they were fasted for 6 h, and fasting blood glucose (FBG) was monitored by a blood glucose meter. Orbital blood was taken from all animals, and serum was collected by centrifugation to detect serum ALT levels. Animals were randomly divided into 6 groups according to their body weight, FBG and ALT levels. After that, the high fat feed (HFD) was replaced with the modified high fat feed (mHFD), and the mice had free access to 15% fructose water (v/w). The 8 mice in the other group were fed normal diet and water.
The first end point of the experiment: After 8 weeks of administration, the end point body weight was recorded and the animals were fasted for 6 h, and fasting blood glucose was measured with a blood glucose meter. The mice were then euthanized by CO2 and serum was collected by orbital blood sampling and stored at −80° C. for insulin and biochemical analysis. The animal's liver was taken and the liver weight was recorded. The liver was divided into four parts, one part was quick-frozen in liquid nitrogen for biochemical analysis, one part was placed in tissue fixative for pathological analysis, one part was stored in RNAlater for qPCR detection (backup for later use), and one part was quick-frozen in liquid nitrogen for possible subsequent detection.
The second end point of the experiment: 3 mice were kept in each group for 6 weeks for further observation. The end point body weight was recorded and the mice were fasted for 6 h. Fasting blood glucose was tested with a blood glucose meter. The mice were then euthanized by CO2 and serum was collected by orbital blood sampling and stored at −80° C. for insulin and biochemical analysis. The animal's liver was taken and the liver weight was recorded. The liver was divided into four parts, one part was quick-frozen in liquid nitrogen for biochemical analysis, one part was placed in tissue fixative for pathological analysis, one part was stored in RNAlater for qPCR detection (backup for later use), and one part was quick-frozen in liquid nitrogen for subsequent detection.

SD rats = assay: 14-day toxicity experiment on rats: safety observations; format: in vivo
Text: (§1) Test Example 7 14-Day Toxicity Experiment on Rats
(§2) SD rats were orally gavaged with compound 062 and the control compound once a day for a total of 14 times. The toxic reactions caused by compound 062 and the control compound were observed and their toxicokinetics were studied.
An appropriate amount of the test compound was weighed (weighed amount=theoretical required amount/content), and fully ground and dispersed in a mortar (agate or ceramic). Then, an appropriate amount of [5% Solutol HS15 in 95% (0.2% CMC-Na)] was added and the mixture was ground until there were no obvious large particles. Then the mortar was cleaned with [5% Solutol HS15 in 95% (0.2% CMC-Na)] in small amounts several times until there was no drug powder residue observed with the naked eye. The mixture was transferred to a suitable container, well stirred and mixed, and the remaining [5% Solutol HS15 in 95% (0.2% CMC-Na)] was further added to the required volume (streaking method). The system was stirred and mixed for at least 20 min, thereby giving the test sample formulation.
(§3) Oral gavage. The drug was stirred for at least 30 min prior to administration and continuously stirred throughout the administration. The dosing frequency was once a day for 14 consecutive days, and the dosing amount was 10 mL/kg (the dosing amount was calculated based on the most recent weight).
Dosing period: All surviving animals in the main test group were observed twice a day, once before and after dosing respectively, and observed in detail at least once a week.
Observation contents: The main observation contents include (but not limited to) survival status, injection site, skin, hair, eyes, ears, nose, mouth, chest, abdomen, urogenital area, limbs, as well as breathing, movement, urination, defecation, mental or behavioral changes, etc.
Dosing period: All surviving animals were weighed at least once a week. The body weight of animals in the toxicokinetics (TK) group was only used to calculate the dosage. The body weight data were not statistically analyzed and were only presented as individual data in the summary report.
Dosing period: The food intake of the surviving animals in the main test group was weighed at least once a week, and the average food intake was expressed in g/animal/day.
• End of dosing period: once; • Blood sampling route: abdominal aorta; • Animals: Plan to dissect surviving animals; • Blood was collected into tubes containing anticoagulant (EDTA-K2), and hematological indices were detected using a Sysmex XN-1000V fully automatic blood analyzer; blood was collected into anticoagulant tubes containing sodium citrate, and coagulation indices were detected using a Sysmex CS-5100 coagulometer. The specific detection indices are as follows:
• End of dosing period: once; • Blood sampling route: abdominal aorta; • Animals: Plan to dissect surviving animals; • The animals were fasted overnight, and whole blood was collected into a test tube containing a coagulant and a separation gel. Serum was obtained by centrifugation, and serum biochemical indices were detected using a Hitachi-7180 biochemical analyzer. The specific detection indices are as follows:
• Dissection time: end of dosing period (D15); • Anesthesia method: The specifications of the anesthetic mixture are ketamine of 37.5 mg/mL and xylazine of 2.5 mg/mL. The euthanasia dose is 2-4 mL/kg of the mixture (the anesthetic dose of the animal planned for dissection is calculated based on the body weight after fasting overnight, the concentration will be recorded in the original record and presented in the summary report, and the dose can be adjusted according to the anesthetic effect) by intraperitoneal injection. […]

[1] = 14-day toxicity experiment on rats: toxicokinetics; format: in vivo, SD rats; settings: for Cmax / AUC(0-t): SD, rat, plasma, po; for AUC(0-t): read-out: AUC(0-24)
Description: as §1, §2, §3
Different time points before and after administration on D1 and D14.
Group 2 to Group 7: Before dosing and 0.5 h, 1 h, 2 h, 4 h, 8 h and 24 h after dosing (before dosing on D2 and/or D15).
Whole blood was collected into a blood collection tube containing EDTA-K2, the tube was immediately and gently inverted upside down several times to mix the system thoroughly, and placed on crushed ice/ice pack. Blood was centrifuged (2000 g, 10 min) at 4° C. (set temperature, allowable temperature range: 2 to 8° C.) within 1 h after blood collection. The collected plasma was divided into two portions into separate labeled EP tubes (one for testing and one for standby testing), and stored in an ultra-low temperature refrigerator (−70° C. to −90° C.) within 2 h after collection. The samples were stored in dry ice during transportation and transfer.
The drug concentration in plasma was analyzed by using LC-MS/MS, verified blood drug concentration data was provided, and the main toxicokinetic parameters (AUC0-t, Cmax and Tmax) were calculated and compared.

[2] = 30 mg/kg, 30 mpk oral, Day 1, plasma
[3] = 30 mg/kg, 30 mpk oral, Day 14, plasma
[4] = 60 mg/kg, 60 mpk oral, Day 1, plasma
[5] = 60 mg/kg, 60 mpk oral, Day 14, plasma
[6] = 100 mg/kg, 100 mpk oral, Day 1, plasma
[7] = 100 mg/kg, 100 mpk oral, Day 14, plasma

SMILES: CC(C)(O)CNc1nnc(-c2ccc(Cl)cc2O)c2ccncc12 [Control compound]
- rebound of body weight after drug withdrawal (mouse NASH model; control compound combined with semaglutide): neither the control compound combined with semaglutide nor the groups of low/high dose semaglutide alone inhibited the rebound of body weight
- animals with swelling of the left and right hind limbs and ears, females (SD rats; 30 mg/kg): 2/5
- animals with swelling of the left and right hind limbs and ears, males (SD rats; 30 mg/kg): 4/5
- Gross anatomy, animals with unplanned autopsy (dead animals) (SD rats; 100 mg/kg): showed discoloration of the lungs and/or liver.
- weight loss before death vs before dosing, animal 4006# (SD rats; 100 mg/kg, male, TK group, found dead D 6): weight loss (vs before dosing: ↓28.4%)
- body weight decrease before death vs before dosing, animal 4101# (SD rats; 100 mg/kg, male, found dead D 4): ↓6.25%); before death, animal 4006# showed
- body weight reduction vs. control group (SD rats; D 7, high (100 mg/kg)): 22.5%
- body weight reduction vs. control group (SD rats; D 7, low (30 mg/kg)): 7.7%
- body weight reduction vs. control group (SD rats; D 7, medium (60 mg/kg)): 16.7%
- body weight reduction vs. control group (SD rats; D 14, high (100 mg/kg)): 23.3%
- body weight reduction vs. control group (SD rats; D 14, low (30 mg/kg)): 8.5%
- body weight reduction vs. control group (SD rats; D 14, medium (60 mg/kg)): 14.6%
- #NEU increase (SD rats; females, high (100 mg/kg)): 687.1%
- MONO % increase (SD rats; females, high (100 mg/kg)): 290.3%
- #MONO increase (SD rats; females, low (30 mg/kg)): 187.7%
- MONO % increase (SD rats; females, low (30 mg/kg)): 63.6%
- #MONO increase (SD rats; females, medium (60 mg/kg)): 237.0%
- #NEU increase (SD rats; females, medium (60 mg/kg)): 251.8%
- MONO % increase (SD rats; females, medium (60 mg/kg)): 100.6%
- ALB reduction vs. control group (SD rats; females, ≥100 mg/kg): females: at dose ≥100 mg/kg, ALB (↓28.5%)
- GLO increase vs. control group (SD rats; females, ≥100 mg/kg): GLO (: ↑ 61.3%) was significantly increased
- #MONO increase vs. control group (SD rats; males, high (100 mg/kg)): 313.0%
- #MONO increase vs. control group (SD rats; males, low (30 mg/kg)): #MONO increased (low: ↑ 154.4%,
- #MONO increase vs. control group (SD rats; males, medium (60 mg/kg)): 215.8%
- #EOS increase vs. control group (SD rats; males, ≥100 mg/kg): 816.7%
- MONO % increase vs. control group (SD rats; males, ≥100 mg/kg): 160.3%
- body weight gain vs. control group (SD rats; ≥30 mg/kg, males and females): low body weight gain
- Cmax [1, 2]: 17500 ng/mL
- AUC(0-t) [1, 2]: 248 µg·h/mL
- Cmax [1, 3]: 13200 ng/mL
- AUC(0-t) [1, 3]: 202 µg·h/mL
- Cmax [1, 4]: 21400 ng/mL
- AUC(0-t) [1, 4]: 360 µg·h/mL
- Cmax [1, 5]: 22400 ng/mL
- AUC(0-t) [1, 5]: 324 µg·h/mL
- Cmax [1, 6]: 24000 ng/mL
- AUC(0-t) [1, 6]: 405 µg·h/mL
- Cmax [1, 7]: 26700 ng/mL
- AUC(0-t) [1, 7]: 439 µg·h/mL

SMILES: CC#Cc1ccc2c(-c3ccc(Cl)cc3O)nnc(NC[C@H](O)CO)c2c1 [Compound 062, (S)-3-((4-(4-chloro-2-hydroxyphenyl)-7-(prop-1-yn-1-yl)phthalazin-1-yl)amino) propan-1,2-diol]
- rebound of mouse body weight after drug withdrawal (mouse NASH model; combination with 0.025 mpk semaglutide, FIG. 5): significantly inhibited the rebound of mouse body weight after drug withdrawal
- food intake (mouse NASH model; combination with 0.025 mpk semaglutide, FIG. 6): without affecting food intake
- levels of ALT, AST, LDL and HDL after drug withdrawal (mouse NASH model; serum, combination with 0.025 mpk semaglutide, FIG. 7): significantly inhibited the levels of ALT, AST, LDL and HDL after drug withdrawal
- safety (conclusion in words) (SD rats; 14-day rat study): good safety
- Death/moribundity (SD rats; 30, 60, 100 mg/kg/day oral, 14 days): None
- safety compared with the control compound (SD rats; exposure in high-dose group 4.8 times that of control compound): much better than that of the control compound
- exposure in the high-dose group relative to the control compound ([1]; 100 mg/kg high-dose group): 4.8 times
- Cmax [1, 2]: 19900 ng/mL
- AUC(0-t) [1, 2]: 279 µg·h/mL
- Cmax [1, 3]: 31700 ng/mL
- AUC(0-t) [1, 3]: 384 µg·h/mL
- Cmax [1, 4]: 41100 ng/mL
- AUC(0-t) [1, 4]: 622 µg·h/mL
- Cmax [1, 5]: 68600 ng/mL
- AUC(0-t) [1, 5]: 1120 µg·h/mL
- Cmax [1, 6]: 68200 ng/mL
- AUC(0-t) [1, 6]: 1120 µg·h/mL
- Cmax [1, 7]: 127000 ng/mL
- AUC(0-t) [1, 7]: 2120 µg·h/mL
